Assay [1] concerns the target T1, Rac GTPase-activating protein 1 (Homo sapiens, UniProt Q9H0H5).
T1 sequence (Q9H0H5 whole entry): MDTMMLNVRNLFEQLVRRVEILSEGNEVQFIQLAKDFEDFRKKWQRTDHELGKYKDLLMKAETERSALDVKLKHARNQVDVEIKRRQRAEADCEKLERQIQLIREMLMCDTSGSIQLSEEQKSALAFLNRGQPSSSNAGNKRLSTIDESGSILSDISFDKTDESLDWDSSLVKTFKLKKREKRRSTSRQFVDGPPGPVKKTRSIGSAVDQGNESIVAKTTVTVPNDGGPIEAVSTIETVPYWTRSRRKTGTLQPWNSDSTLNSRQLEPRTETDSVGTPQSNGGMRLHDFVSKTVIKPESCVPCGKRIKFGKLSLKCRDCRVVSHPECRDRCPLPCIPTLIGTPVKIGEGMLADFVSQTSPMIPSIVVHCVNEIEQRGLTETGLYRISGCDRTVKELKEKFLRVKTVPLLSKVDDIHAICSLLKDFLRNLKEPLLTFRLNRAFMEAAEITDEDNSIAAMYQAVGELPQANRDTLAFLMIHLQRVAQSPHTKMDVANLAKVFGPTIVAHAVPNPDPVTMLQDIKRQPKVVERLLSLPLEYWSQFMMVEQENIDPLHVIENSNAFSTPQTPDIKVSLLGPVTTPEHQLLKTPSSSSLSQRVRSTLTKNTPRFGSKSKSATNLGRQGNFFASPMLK
In words: MgcRacGAP GTPase-activating activity inhibitors, confirmation, biochemical, ADP Hunter fluorescence, primary and confirmatory (AID 624330). The class given is functional.

Assay [2] addresses FAD-linked sulfhydryl oxidase ALR (Homo sapiens, UniProt P55789). Put plainly: inhibitors of human ALR sulfhydryl oxidase, dose response, biochemical, H2O2 detection, luminescence, cherry-pick (AID 493248).
Assay [3] can be described thus: inhibitors of Vif binding to APOBEC3G peptide, primary screen, biochemical, TR-FRET, GST-Vif 1-94, biotin-A3G peptide, dose response retest (AID 1117319).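 Note: inhibitors lower the FRET signal by blocking Vif and A3G binding.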 The class given is functional. (In TR-FRET formats the signal depends on donor and acceptor labels being close together.)
The next assay deals with Prothrombin (Homo sapiens, UniProt P00734). Put plainly: Thrombin 1536 HTS Dose Response Confirmation. [Related pubchem assays: 1046 (Thrombin 1536 HTS; hits were confirmed in this assay)]. The class given is functional.
Assay [4] addresses T2, Aryl hydrocarbon receptor (Homo sapiens, UniProt P35869).
T2 sequence (P35869 whole entry): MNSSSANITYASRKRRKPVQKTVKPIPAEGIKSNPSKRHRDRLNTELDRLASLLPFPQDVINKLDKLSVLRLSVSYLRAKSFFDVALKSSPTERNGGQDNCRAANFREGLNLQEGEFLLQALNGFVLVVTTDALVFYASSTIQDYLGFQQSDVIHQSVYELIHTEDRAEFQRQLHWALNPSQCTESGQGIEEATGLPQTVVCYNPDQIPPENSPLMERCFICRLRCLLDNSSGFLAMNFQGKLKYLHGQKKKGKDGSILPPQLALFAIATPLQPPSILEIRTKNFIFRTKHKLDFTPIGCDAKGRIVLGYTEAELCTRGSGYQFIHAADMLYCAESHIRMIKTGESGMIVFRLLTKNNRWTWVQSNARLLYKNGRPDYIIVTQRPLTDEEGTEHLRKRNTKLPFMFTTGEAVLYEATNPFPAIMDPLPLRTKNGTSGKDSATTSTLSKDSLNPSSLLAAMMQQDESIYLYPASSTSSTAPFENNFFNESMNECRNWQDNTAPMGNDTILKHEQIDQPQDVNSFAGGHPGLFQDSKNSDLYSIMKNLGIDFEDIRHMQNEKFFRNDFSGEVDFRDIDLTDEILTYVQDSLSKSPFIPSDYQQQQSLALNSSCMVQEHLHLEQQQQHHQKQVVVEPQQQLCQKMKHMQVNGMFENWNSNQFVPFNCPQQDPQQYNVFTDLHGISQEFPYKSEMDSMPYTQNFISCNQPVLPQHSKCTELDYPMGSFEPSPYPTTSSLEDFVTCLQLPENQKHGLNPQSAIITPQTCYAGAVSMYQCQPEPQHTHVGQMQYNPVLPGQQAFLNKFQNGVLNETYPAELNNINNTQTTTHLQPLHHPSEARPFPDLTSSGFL
Put plainly: Luminescence-based cell-based high throughput dose response assay for activators of the Aryl Hydrocarbon Receptor (AHR). [Related pubchem assays: 2796 (Primary screen (AHR activators in singlicate)), 2845 (Confirmation screen (AHR activators in triplicate)), 434939 (Counterscreen (PXR activators in triplicate)), 2804 (Summary (AHR activators))]. The class given is ADME.

For the next assay, the system named is H9c2. In words: cells. The conditions noted are these: Rattus norvegicus, H9c2, Myocardium. The class given is functional, cell-based.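 Note: confirmatory concentration-response retest of ultra-high-throughput screening hits for modulation of myocardial damage; cell death induced by hydrogen peroxide oxidative stress; compound pretreatment for 60 min then peroxide exposure for 2 h; potency is for protecting the cells against peroxide damage rather than for killing them.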
A further assay addresses T3, Caspase-6 (Homo sapiens, UniProt P55212).
T3 sequence (P55212 whole entry): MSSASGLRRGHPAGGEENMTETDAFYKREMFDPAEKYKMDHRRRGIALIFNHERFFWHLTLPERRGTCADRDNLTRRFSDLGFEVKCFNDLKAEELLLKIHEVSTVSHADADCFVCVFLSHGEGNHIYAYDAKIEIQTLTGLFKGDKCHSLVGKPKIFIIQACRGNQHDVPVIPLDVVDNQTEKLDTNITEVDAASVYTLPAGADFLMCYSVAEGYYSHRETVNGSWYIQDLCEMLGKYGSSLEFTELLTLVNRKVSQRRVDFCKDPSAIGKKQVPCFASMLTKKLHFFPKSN
In words: human caspase-6 inhibitors, dose response, biochemical, VEID-R110 fluorescence, cherry-pick (AID 720632).

Assay [5] has as its target T4, 1-phosphatidylinositol 4,5-bisphosphate phosphodiesterase beta-3 (Homo sapiens, UniProt Q01970).
T4 sequence (Q01970 whole entry): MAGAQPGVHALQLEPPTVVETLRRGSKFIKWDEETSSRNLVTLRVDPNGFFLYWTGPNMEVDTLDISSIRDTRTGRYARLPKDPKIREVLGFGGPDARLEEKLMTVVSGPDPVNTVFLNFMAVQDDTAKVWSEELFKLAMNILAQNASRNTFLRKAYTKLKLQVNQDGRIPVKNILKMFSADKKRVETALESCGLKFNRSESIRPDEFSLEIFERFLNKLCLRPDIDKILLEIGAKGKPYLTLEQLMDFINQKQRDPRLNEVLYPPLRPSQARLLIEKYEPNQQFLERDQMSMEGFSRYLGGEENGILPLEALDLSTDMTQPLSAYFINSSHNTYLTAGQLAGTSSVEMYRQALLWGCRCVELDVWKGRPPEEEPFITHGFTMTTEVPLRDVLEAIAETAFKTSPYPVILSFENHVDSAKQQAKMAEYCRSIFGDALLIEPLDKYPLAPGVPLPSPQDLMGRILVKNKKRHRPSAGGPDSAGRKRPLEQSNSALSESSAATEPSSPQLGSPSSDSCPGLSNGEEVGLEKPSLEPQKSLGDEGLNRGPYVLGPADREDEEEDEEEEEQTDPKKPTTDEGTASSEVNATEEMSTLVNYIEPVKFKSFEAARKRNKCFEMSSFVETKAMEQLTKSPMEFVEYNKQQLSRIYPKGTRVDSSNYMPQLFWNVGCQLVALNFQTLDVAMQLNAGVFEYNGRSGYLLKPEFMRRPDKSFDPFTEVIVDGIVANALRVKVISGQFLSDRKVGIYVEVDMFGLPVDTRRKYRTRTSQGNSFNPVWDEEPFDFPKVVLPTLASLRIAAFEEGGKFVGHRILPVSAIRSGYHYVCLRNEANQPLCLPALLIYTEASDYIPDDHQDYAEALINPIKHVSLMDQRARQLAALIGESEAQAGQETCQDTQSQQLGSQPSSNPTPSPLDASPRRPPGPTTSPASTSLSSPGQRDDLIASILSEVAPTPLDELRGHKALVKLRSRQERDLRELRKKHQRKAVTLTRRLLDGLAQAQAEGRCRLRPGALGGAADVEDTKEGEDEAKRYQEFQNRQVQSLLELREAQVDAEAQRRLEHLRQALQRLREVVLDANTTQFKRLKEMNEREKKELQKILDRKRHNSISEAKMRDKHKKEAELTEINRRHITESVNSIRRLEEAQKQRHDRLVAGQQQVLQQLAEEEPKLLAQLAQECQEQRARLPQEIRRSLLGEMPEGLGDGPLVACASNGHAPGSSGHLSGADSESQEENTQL
In words: Fluorescence-based biochemical high throughput dose response assay to identify inhibitors of phospholipase C isozymes (PLC-B3).

Assay [6] deals with T5, Carboxy-terminal domain RNA polymerase II polypeptide A small phosphatase 1 (Homo sapiens, UniProt Q9GZU7).
T5 sequence (Q9GZU7 whole entry): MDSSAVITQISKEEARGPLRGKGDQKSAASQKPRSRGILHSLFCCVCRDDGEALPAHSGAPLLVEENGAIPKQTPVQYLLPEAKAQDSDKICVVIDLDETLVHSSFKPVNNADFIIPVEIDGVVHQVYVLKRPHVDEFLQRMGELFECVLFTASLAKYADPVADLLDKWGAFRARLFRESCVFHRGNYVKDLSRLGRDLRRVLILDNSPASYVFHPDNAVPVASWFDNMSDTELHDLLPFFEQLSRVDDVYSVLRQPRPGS
Put plainly: inhibitors of CTDSP1, concentration-response testing, biochemical assay, absorbance-based, actives from ultra-high-throughput screening (AID 540297). The class given is functional.

In assay [7] the target is DNA dC->dU-editing enzyme APOBEC-3A (Homo sapiens, UniProt P31941). Put plainly: Dose Response confirmation of small molecule APOBEC3A DNA Deaminase Inhibitors via a fluorescence-based single-stranded DNA deaminase assay. [Related pubchem assays (depositor defined):AID493011, AID493024]. The class given is functional.
Chain of DNA dC->dU-editing enzyme APOBEC-3A (P31941 whole entry): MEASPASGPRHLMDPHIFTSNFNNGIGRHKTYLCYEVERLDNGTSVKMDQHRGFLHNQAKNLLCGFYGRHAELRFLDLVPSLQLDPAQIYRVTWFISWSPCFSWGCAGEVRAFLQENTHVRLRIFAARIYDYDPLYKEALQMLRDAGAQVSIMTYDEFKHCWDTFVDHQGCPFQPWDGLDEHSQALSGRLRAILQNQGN
Assay [8] deals with T6, 1-phosphatidylinositol 4,5-bisphosphate phosphodiesterase gamma-1 (Homo sapiens, UniProt P19174).
T6 sequence (P19174 whole entry): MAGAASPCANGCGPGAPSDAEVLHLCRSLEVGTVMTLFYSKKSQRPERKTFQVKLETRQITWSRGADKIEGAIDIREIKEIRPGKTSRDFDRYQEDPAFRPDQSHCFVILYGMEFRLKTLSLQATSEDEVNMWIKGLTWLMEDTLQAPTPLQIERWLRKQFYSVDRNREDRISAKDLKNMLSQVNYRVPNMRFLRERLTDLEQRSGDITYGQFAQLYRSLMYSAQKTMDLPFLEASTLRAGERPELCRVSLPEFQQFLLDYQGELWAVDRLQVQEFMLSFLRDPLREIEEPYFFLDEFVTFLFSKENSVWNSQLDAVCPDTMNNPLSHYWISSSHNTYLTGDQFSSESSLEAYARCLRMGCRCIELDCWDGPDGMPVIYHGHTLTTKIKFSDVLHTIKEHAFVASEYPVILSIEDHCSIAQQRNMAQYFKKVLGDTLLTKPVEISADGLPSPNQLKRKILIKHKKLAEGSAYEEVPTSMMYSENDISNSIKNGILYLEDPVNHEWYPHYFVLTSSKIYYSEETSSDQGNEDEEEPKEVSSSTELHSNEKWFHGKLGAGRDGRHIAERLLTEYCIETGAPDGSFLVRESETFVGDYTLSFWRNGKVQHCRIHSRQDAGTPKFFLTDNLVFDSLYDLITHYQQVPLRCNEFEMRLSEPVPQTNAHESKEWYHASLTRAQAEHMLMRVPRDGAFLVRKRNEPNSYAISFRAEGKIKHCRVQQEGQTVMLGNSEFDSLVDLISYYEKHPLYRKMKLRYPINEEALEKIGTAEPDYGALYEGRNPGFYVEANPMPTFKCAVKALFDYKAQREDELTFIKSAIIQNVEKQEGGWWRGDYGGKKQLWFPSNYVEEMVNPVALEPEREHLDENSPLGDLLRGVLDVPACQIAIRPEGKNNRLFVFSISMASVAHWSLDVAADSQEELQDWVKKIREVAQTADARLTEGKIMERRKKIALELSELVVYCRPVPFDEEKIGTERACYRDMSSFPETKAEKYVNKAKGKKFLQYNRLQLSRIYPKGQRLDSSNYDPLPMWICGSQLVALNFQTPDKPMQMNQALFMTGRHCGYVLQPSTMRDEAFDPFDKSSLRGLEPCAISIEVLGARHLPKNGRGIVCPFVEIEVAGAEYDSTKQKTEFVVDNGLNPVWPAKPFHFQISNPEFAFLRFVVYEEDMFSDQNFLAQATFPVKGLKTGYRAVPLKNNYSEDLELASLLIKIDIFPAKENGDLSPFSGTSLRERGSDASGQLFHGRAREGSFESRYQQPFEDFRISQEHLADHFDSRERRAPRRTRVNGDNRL
Put plainly: Counterscreen for inhibitors of phospholipase C isozymes (PLC-B3): Fluorescence-based biochemical high throughput dose response assay to identify inhibitors of phospholipase C isozymes (PLC-gamma1). (In general: Counterscreens check selectivity or assay interference.)

The target of assay [9] is DNA dC->dU-editing enzyme APOBEC-3G (Homo sapiens, UniProt Q9HC16). The class given is functional.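 Note: Dose-response counterscreen measuring inhibition of APOBEC3G DNA deaminase activity, run while confirming APOBEC3A inhibitors.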
Chain of DNA dC->dU-editing enzyme APOBEC-3G (Q9HC16 whole entry): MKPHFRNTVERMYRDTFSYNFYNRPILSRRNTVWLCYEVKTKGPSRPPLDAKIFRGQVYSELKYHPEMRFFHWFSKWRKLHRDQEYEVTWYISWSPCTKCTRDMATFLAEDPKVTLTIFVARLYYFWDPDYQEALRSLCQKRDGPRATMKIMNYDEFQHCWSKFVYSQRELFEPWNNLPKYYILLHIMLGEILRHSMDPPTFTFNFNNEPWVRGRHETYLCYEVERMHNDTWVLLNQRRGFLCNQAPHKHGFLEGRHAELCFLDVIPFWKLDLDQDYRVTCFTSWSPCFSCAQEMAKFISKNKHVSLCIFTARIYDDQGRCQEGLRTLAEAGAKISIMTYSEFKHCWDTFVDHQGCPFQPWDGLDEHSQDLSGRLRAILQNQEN

Molecules are shown by their SMILES. Activity calls are given as the source filed them.

Chain of FAD-linked sulfhydryl oxidase ALR (P55789 whole entry): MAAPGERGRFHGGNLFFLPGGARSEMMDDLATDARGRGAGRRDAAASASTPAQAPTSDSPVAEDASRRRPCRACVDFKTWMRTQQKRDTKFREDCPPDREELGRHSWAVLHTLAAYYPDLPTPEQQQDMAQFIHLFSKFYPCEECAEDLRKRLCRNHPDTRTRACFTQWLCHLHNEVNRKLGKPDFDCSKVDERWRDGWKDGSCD

`CCN(CC)c1ccc(NC(=O)c2ccc(Br)o2)cc1`: the IC50 is 25.9 µM (active) in assay [1] and > 100 µM (active) in [3]. Besides, in [2], the AC50 was 0.745 µM (active). For the compound `CCOC(=O)C1CCN(S(=O)(=O)c2cccc(-c3cn4cccc(C)c4n3)c2)CC1`, in assay [3], the IC50 is > 100 µM (active).

As for `CC(=O)c1ccc(Nc2nc(=O)c3cccnc3s2)cc1`, in assay [3], the IC50 is > 100 µM (active). Still for that read-out and setting: with `COc1ccccc1N1CCN(C(=O)c2cc(-c3cccs3)on2)CC1` the figure was > 100 µM (active). For the compound `CCC(=O)n1nc(-c2ccc(Cl)cc2)nc1SC`, the IC50 on Prothrombin was 7.14 µM (active).

Take `Nc1nncn1C(=O)CCc1ccccc1`: the half-inhibitory concentration (IC50) on Prothrombin was 0.605 µM (active). Take `COc1ccccc1NC(=O)C1C2CCCCC21` (stereo not given): on Prothrombin, the IC50 is on record as > 50 µM (not active). Regarding `Cn1c(N)c(C(=O)Nc2ccccc2F)sc1=S`, in [4], the 50% effective concentration (EC50) was 0.857 µM (active). Turning to `COC(=O)C1CC(=O)c2ccsc2C1` (stereo not given), the IC50 against Prothrombin is > 50 µM (not active).

As to `CC(=O)n1cc(/C=N/NC(=O)c2sc(C)nc2C)c2ccccc21`, the IC50 in the assay on H9c2 was > 79 µM (inactive). In addition, the EC50 in assay [4] is reported as > 91.7 µM (not active). On to `Cn1c(=O)c2c(nc(/C=C/c3cccc(Cl)c3)n2C)n(C)c1=O`, for which, in [4], the EC50 is 3.34 µM (active). On to `CC1(CC(=O)N/N=C/c2cc([N+](=O)[O-])c(O)cc2O)OCCO1`, for which, at Caspase-6, the AC50 is 23.7 µM (active). In addition, the IC50 in assay [5] was > 122 µM (inactive); in [6], 4.41 µM (active); in assay [7], 19.3 µM (active); in assay [8] it was > 122 µM (inactive); in [9] it was 41 µM (active).

As a reminder, the IC50 is the concentration at which inhibition is half-maximal. In general, AC50 refers to the concentration giving half of the maximal activity seen. What is called EC50 is the concentration giving half of the maximal effect.
